Read-outs that look alike come from different tables or passages of the source.
Tests used:
human recombinant LTC4S = target: T1, human recombinant LTC4S (Homo sapiens, UniProt Q16873); assay: Determination of LTC4 synthase activity in microsomes of HEK293 cells expressing LTC4S; type: biochemical; conditions: for inhibition of LTC4S activity (in words): microsomal preparations of HEK293 cells expressing human recombinant LTC4S
T1 construct: expressed in transfected cells; host or cells: HEK293 cells stably expressing LTC4S; microsomal fraction
T1 sequence (Q16873 1-150): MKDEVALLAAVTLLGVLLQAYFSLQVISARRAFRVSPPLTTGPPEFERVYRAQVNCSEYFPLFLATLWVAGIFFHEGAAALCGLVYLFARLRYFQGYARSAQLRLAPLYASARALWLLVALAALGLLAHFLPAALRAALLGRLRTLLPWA
Experimental: Determination of LTC4 synthase activity. HEK293 cells stably expressing human recombinant LTC4S (HEK_LTC4S) were used to generate microsomes containing LTC4S. Briefly, HEK_LTC4S cells were frozen in liquid nitrogen and sonicated 3×20 s at 4 °C in homogenization buffer (0.1 M potassium phosphate buffer, pH 7.4, 1 mM phenylmethanesulfonylfluoride, 60 μg/mL soybean trypsin inhibitor, 1 μg/mL leupeptin, 2.5 mM glutathione, and 250 mM sucrose). Lysates were sequentially centrifuged at 10,000×g, 10 min at 4 °C and 174,000×g for 1 h at 4 °C. The microsomal fraction (2.5 μg) was resuspended in assay buffer (0.1 M potassium buffer pH 7.4, plus 5 mM glutathione) and preincubated with the test compound or vehicle (0.1 % DMSO) for 10 min at 4 °C. The reactions were started by adding 1 μM LTA4‐methyl ester (Cayman, Ann Arbor, MI) and stopped after 10 min incubation at 4 °C by 1 vol. ice‐cold methanol. Acidified PBS and LTC4‐methyl ester‐d5 as internal standard were added prior solid phase extraction, and LTC4‐methyl ester formation was analyzed by UPLC‐MS/MS as described.[43] UPLC‐MS/MS was carried out by Acquity UPLC BEH C18 column (1.7 μm, 2.1×50 mm, waters) and QTRAP 5500 Mass spectrometer (AB Sciex). LTC4‐methyl ester and LTC4‐d5 methyl ester (standard) were detected by multiple reaction monitoring in the negative ion mode by a method described previously.[44]
Reversed phase liquid chromatography and mass spectrometry. LTC4S metabolites were separated on an Acquity ultra performance liquid chromatography (UPLC) BEH C18 column (1.7 μm, 2.1×50 mm, Waters, Milford, MA) using an Acquity^TM UPLC system (Waters, Milford, MA, USA) as previously described.[42] The chromatography system was coupled to a QTRAP 5500 Mass Spectrometer (AB Sciex, Darmstadt, Germany) equipped with an electrospray ionization source. LTC4S metabolites were quantified by multiple reaction monitoring in the negative using a previously reported method with a lower limit of detection of 150 to 600 pg mL^−1 and linear quantification range up to 200 ng mL^−1.[22] Automatic peak integration was performed with ANALYST 1.6 software (Sciex, Darmstadt, Germany) using IntelliQuan default settings. Data were normalized on the internal standard PGB1 and are given as relative intensities.

[1] = tested on: 5‐LOX product formation in human neutrophils; assay: 5-LOX product formation in intact human neutrophils stimulated with A23187 (FLAP-dependent); conditions: Neutrophil, read-out: IC50 cell‐based 5‐LOX
Experimental: Blood cell isolation and cultivation of cell lines. Human neutrophils were freshly isolated from peripheral blood obtained at the Institute for Transfusion Medicine of the University Hospital Jena (Germany) as described.[45] Briefly, human peripheral blood was collected in heparinized tubes (16 I. E. heparin/mL blood) by venipuncture from fasted (12 h) adult healthy volunteers, with consent, and leukocyte concentrates were prepared by centrifugation (4000×g, 20 min, 20 °C). The subjects had no apparent inflammatory conditions and had not taken anti‐inflammatory drugs for at least ten days prior to blood collection. Neutrophils were immediately isolated by dextran sedimentation and centrifugation on Nycoprep cushions (PAA Laboratories, Linz, Austria) and hypotonic lysis of erythrocytes was performed under hypotonic conditions. Neutrophils were finally resuspended in PBS pH 7.4 containing 1 mg/mL glucose and 1 mM CaCl2 (purity >96‐97 %).
5‐LOX activity assay. […] […] 30 μL 1 N HCl and 500 μL PBS, and 200 ng PGB1 were added and the samples were subjected to solid phase extraction on C18‐columns (100 mg, UCT, Bristol, PA, USA). 5‐LOX products (LTB4, all‐trans isomers of LTB4, and 5‐hydro(pero)xy‐6,8,11,14‐ eicosatetraenoic acid (5‐H(p)ETE) were analyzed by RP‐HPLC and quantities calculated referencing to the internal standard PGB1.

5‐LOX/FLAP interaction [2] = target: T2, 5‐LOX/FLAP interaction (Homo sapiens, UniProt P20292); parameters: method as in PMID 24905297, PMID 28839250; conditions: HEK cells, same experimental conditions; cited from earlier work
T2 construct: expressed in transfected cells; host or cells: HEK293 cells stably transfected with 5-LOX and FLAP
T2 sequence (P20292 1-161): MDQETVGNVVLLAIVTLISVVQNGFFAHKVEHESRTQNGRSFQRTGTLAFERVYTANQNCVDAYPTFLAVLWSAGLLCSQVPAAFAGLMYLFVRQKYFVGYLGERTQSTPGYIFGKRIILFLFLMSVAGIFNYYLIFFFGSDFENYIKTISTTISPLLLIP

mPGES‐1 [3] = target: T3, mPGES‐1 (Homo sapiens, UniProt O14684); conditions: cell-free; cited from earlier work
T3 construct: Microsomes derived from A549 cells expressing mPGES‐1; endogenous in cells; host or cells: A549 cells (microsomes)
T3 sequence (O14684 1-152): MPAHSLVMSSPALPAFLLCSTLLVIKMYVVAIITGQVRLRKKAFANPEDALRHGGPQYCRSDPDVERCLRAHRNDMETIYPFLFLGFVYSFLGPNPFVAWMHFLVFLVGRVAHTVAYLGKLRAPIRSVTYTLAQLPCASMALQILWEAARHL

mPGES‐1 [4] = target: T3, mPGES‐1; assay: mPGES-1 washout assay in microsomes of A549 cells; type: biochemical; conditions: for residual mPGES-1 enzyme activity: % of vehicle control
Experimental: mPGES‐1 washout assay. Microsomes derived from A549 cells expressing mPGES‐1 were incubated with low (1 μM) or high concentrations (10 μM) of compound 1 d. After 15 min an aliquot of the sample containing 10 μM 1 d was diluted 10‐fold with buffer to reach a final concentration of 1 μM. After another 5 min the substrate PGH2 (20 μM) was added. The reaction was stopped after 60 s to determine PGE2 formation. Washout data are presented as means of residual activity ± SD in % of vehicle treated control for n=3 independent experiments. Outliers were determined using Grubb's test (GraphPad Software, La Jolla, CA). Samples were not blinded.

5‐LOX/FLAP interaction [5] = target: T2, 5‐LOX/FLAP interaction; assay: In situ proximity ligation assay of 5-LOX/FLAP interaction in HEK293 cells; type: cell-based; conditions: HEK293 cells expressing 5-LOX and FLAP, 2.5 μM A23187; 1 d 3 μM
Experimental: Cell culture. The human embryonic kidney cell line HEK293 was cultured as monolayer at 37 °C and 5 % CO2 in DMEM High glucose containing 10 % heat‐inactivated fetal calf serum (FCS), 100 U/mL penicillin and 100 μg/mL streptomycin. HEK293 cells stably expressing human recombinant 5‐LOX and FLAP were selected by 400 μg/mL geneticin and 200 μg/mL hygromycin B, respectively, as described before.[21]
Analysis of 5‐LOX/FLAP interaction by in situ proximity ligation assay. The manufacturer's protocol[46] for proximity ligation assay was used to detect in situ interaction of 5‐LOX with FLAP in HEK293 cells stably expressing both proteins as reported elsewhere.[24] Cells were pretreated with test compounds for 10 min at 37 °C, then treated with 2.5 μM Ca^2+‐ionophore A23187 for another 10 min, fixed, and incubated with primary antibody overnight as described before.[24] Samples were then incubated for 1 h (37 °C) with species‐specific secondary antibodies conjugated with oligonucleotides (PLA probe anti‐mouse MINUS and anti‐rabbit PLUS). The antibody‐bound oligonucleotides formed a DNA circle by addition of ligase (30 min, 37 °C). […] Protein‐protein‐interactions occurred as magenta fluorescent spots analyzed with an Axiovert 200 M microscope (Carl Zeiss) and a Plan Neofluar×40/1.3 Oil (DIC III) objective (Carl Zeiss).

human recombinant 5‐LOX = target: T4, human recombinant 5‐LOX (Homo sapiens, UniProt P09917); assay: Human recombinant 5-LOX activity assay (cell-free); type: biochemical; conditions: 20 μM arachidonic acid
T4 construct: made in house; host or cells: Escherichia coli BL21 (DE3)
T4 sequence (P09917 1-674): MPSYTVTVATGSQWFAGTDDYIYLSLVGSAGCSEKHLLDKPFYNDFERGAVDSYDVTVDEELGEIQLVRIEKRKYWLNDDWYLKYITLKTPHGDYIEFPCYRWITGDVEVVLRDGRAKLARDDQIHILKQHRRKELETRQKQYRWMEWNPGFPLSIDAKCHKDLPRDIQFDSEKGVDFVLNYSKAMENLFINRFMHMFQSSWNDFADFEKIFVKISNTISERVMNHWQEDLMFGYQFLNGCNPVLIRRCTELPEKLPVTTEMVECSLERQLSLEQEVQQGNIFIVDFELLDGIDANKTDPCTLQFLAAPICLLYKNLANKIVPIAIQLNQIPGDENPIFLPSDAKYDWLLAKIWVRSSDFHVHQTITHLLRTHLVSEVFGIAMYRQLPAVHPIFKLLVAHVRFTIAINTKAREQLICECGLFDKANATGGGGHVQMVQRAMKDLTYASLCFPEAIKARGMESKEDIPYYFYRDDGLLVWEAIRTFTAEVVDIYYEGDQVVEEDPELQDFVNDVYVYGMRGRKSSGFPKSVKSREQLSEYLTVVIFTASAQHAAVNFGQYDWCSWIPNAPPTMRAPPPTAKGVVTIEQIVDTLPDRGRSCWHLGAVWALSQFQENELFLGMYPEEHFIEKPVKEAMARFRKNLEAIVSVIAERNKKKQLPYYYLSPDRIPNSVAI
Experimental: Human recombinant 5‐LOX activity assay. Human recombinant 5‐LOX was expressed in Escherichia coli (E. coli BL21 (DE3)) cells and partially purified by affinity chromatography using an ATP‐agarose column as described.[22] Semi‐purified 5‐LOX (specific activity: 1.6 ± 0.2 μg 5‐LOX products per μg protein) was diluted in PBS containing EDTA (1 mM) and ATP (1 mM) to a concentration of 0.5 μg mL^−1 and immediately pre‐incubated with the test compounds (1 μL in DMSO; final DMSO concentration: 0.1 %) for 10 min at 4 °C. Samples were pre‐warmed for 30 s at 37 °C, and 5‐LOX product formation was initiated adding 2 mM CaCl2 and 20 μM arachidonic acid. The reaction was stopped after 10 min at 37 °C adding 1 mL ice‐cold methanol. Formed 5‐LOX metabolites (all‐trans isomers of LTB4 and 5‐H(p)ETE) were extracted and an aliquot of 50 μL analyzed by reversed phase‐HPLC (RP‐HPLC) as described.[23] Data were normalized to the vehicle control to avoid variations independent of test compounds.

SMILES	IC50 (human recombinant LTC4S)	inhibition of LTC4S activity (in words) (human recombinant LTC4S)	IC50 ([1]; Homo sapiens, 5 h)	also measured
O=[N+]([O-])c1cc([N+](=O)[O-])c(-c2ccc(COc3cccc(C(F)(F)F)c3)cc2)cc1F [1 a]	1.68 ± 0.21 µM	significantly inhibited LTC4S activity	3.93 ± 0.24 µM	–
CC(c1cc2ccccc2s1)N(O)C(N)=O (stereo not drawn) [zileuton]	–	–	–	effect on 5‐LOX/FLAP interaction (PLA), earlier reports (5‐LOX/FLAP interaction [2]): inefficiency
COCCc1ccc(OCc2ccc(-c3cc(F)c([N+](=O)[O-])cc3[N+](=O)[O-])cc2)cc1 [1 e]	> 100 µM	did not show inhibitory activity	3.31 ± 0.27 µM	–
O=[N+]([O-])c1cc([N+](=O)[O-])c(-c2ccc(OCc3ccccc3)cc2)cc1F [1 b]	> 100 µM	did not show inhibitory activity	> 100 µM	IC50 (mPGES‐1 [3]): 0.6 ± 1.2 µM
O=[N+]([O-])c1cc([N+](=O)[O-])c(-c2ccc(COc3cccc4ccccc34)cc2)cc1F [1 c]	> 100 µM	did not show inhibitory activity	4.18 ± 0.16 µM	–
CC(C)c1ccc2c(c1)c(SC(C)(C)C)c(CC(C)(C)C(=O)O)n2Cc1ccc(Cl)cc1 [MK886]	–	–	–	effect on 5‐LOX/FLAP interaction (PLA), earlier reports (5‐LOX/FLAP interaction [2]): does block the interaction
O=[N+]([O-])c1cc([N+](=O)[O-])c(-c2ccccc2COc2cccc(C(F)(F)F)c2)cc1F [1 d]	–	significantly inhibited LTC4S activity	–	IC50 (human recombinant LTC4S; microsomes of HEK293 cells expressing human recombinant LTC4S, 1 μM LTA4-methyl ester, read-out: IC50 cell‐free LTC4S): 0.93 ± 0.04 µM; residual mPGES-1 enzyme activity (mPGES‐1 [4]; 1 μM 1 d): 83.3%; residual mPGES-1 enzyme activity (mPGES‐1 [4]; 10 μM 1 d): 21.3%; mPGES-1 enzymatic activity after washout (mPGES‐1 [4]; 10-fold dilution from 10 to 1 μM): 72.5%; mechanism of mPGES-1 inhibition (mPGES‐1 [4]; washout experiment): reversible mechanism of inhibition; effect on 5‐LOX/FLAP interaction (PLA) (5‐LOX/FLAP interaction [5]): able to block the 5‐LOX/FLAP interaction; IC50 ([1]; human neutrophils, 2.5 μM A23187, LTB4, its trans isomers and 5-H(p)ETE): 1.4 ± 0.09 µM; IC50 (human recombinant 5‐LOX): 3.35 ± 0.22 µM

From publication PMC9827972, “Identification of 2,4‐Dinitro‐Biphenyl‐Based Compounds as MAPEG Inhibitors” (Chemmedchem, 2022)
